We go through eight molecules from US3985747A, “Crystalline sesquihydrate of 7-[D-α-amino-α-(p-hydroxyphenyl)acetamido]-3-(1,2,3-triazol- 5-ylthiomethyl)-3-cephem-4-carboxylic acid” (priority 1974, dated 1976).

≈ marks a conversion by molar mass, not a printed value. Where a name gives a salt, the structure may show the parent alone. Read-outs that look alike come from different tables or passages of the source.

Series [1] in a line: Loss of bioactivity of the solid on storage at elevated temperatures. The class given is physicochemical. As to conditions: for Loss of bioactivity (potency) on storage: 43800 min.
Another series deals with Sal.enteritidis A9531. As to the kind of experiment: M.I.C. by Tube Dilution. The following applies: Salmonella enterica. Format: cell-based.
Another series has as its system S. aureus Smith A9537. As to the kind of experiment: M.I.C. by Tube Dilution. Format: cell-based. As to conditions: Staphylococcus aureus, overnight 37° C.
For the next series, the system named is K. pneumoniae A9977. As to the kind of experiment: M.I.C. by Tube Dilution. As to conditions: Klebsiella pneumoniae.
A further series relates to bacteria. As to the kind of experiment: Antibacterial testing in vitro and in vivo. As to conditions: versus that reported in U.S. application Ser. No. 318,340.
In another series the test system is S. aureus BX1633-2 A9606. As to the kind of experiment: M.I.C. by Tube Dilution. Format: cell-based. As to conditions: Staphylococcus aureus, overnight 37° C.
The test system of a further series is Ent. cloacae A9659. As to the kind of experiment: M.I.C. by Tube Dilution. As to conditions: Enterobacter cloacae.
The next series is described as follows: Water solubility. Format: physicochemical.
In another series the test system is Ent. cloacae A9656. As to the kind of experiment: M.I.C. by Tube Dilution. The following applies: Enterobacter cloacae.
The subject of the next series is Ent. cloacae A9657. As to the kind of experiment: M.I.C. by Tube Dilution. The following applies: Enterobacter cloacae.
Series [2] can be described thus: in vivo. As to conditions: mouse, blood, po, 100 mg/kg.
For the next series, the system named is Ps. aeruginosa A9843A. As to the kind of experiment: microbe, parasite or virus in culture. The following applies: Pseudomonas aeruginosa.
For the next series, the system named is E. coli Juhl A15119. As to the kind of experiment: microbe, parasite or virus in culture. The following applies: Escherichia coli, JUHLA15119.
The next series has as its system K. pneumoniae A15130. As to the kind of experiment: microbe, parasite or virus in culture. The following applies: Klebsiella pneumoniae.
The nature of series [3]: in vivo. Also noted: species or system mice. The following applies: mouse, im, 10 mg/kg. As for the experimental part:
Mouse Blood Levels after IM Administration of 10 mg./kg. Dose of BL-S640

The test system of the next series is D. pneumoniae A9585. As to the kind of experiment: M.I.C. by Tube Dilution. The following applies: Streptococcus pneumoniae, at 10^-3 dil'n, + 5% serum, 50% Nutrient Broth - 45% Antibiotic Assay Broth, overnight 37° C. Format: cell-based.
Series [4] has as its system S. aureus(methicillin resist) A15097. As to the kind of experiment: microbe, parasite or virus in culture. As to conditions: Staphylococcus aureus.
The next series deals with Ser. marcescens A20019. As to the kind of experiment: M.I.C. by Tube Dilution. As to conditions: Serratia marcescens.
Another series relates to Pr. morganii A15153. As to the kind of experiment: M.I.C. by Tube Dilution. As to conditions: Morganella morganii.
For series [5] the following is noted: in vivo, po.
The next series is described as follows: physchem. The class given is physicochemical. The following applies: for Bioassay: solution pH 7.1, room temperature. The text has this:
The above components are shaken to form an amber solution having a pH = 7.1. The solution was allowed to stand at room temperature and periodically assayed to determine stability.

The test system of a further series is Pr. mirabilis A9900. As to the kind of experiment: M.I.C. by Tube Dilution. The following applies: Proteus mirabilis.
Another series concerns Str. Pyogenes A9604. As to the kind of experiment: M.I.C. by Tube Dilution. Format: cell-based. The following applies: Streptococcus pyogenes; at 10^-3 dil'n, + 5% serum; 50% Nutrient Broth - 45% Antibiotic Assay Broth; overnight 37° C.
Another series has as its system E. coli A9675. As to the kind of experiment: M.I.C. by Tube Dilution. The class given is cell-based. The following applies: Escherichia coli.
A short description of series [6]: Loss of bound water on drying. Format: physicochemical. The following applies: very mild conditions (air drying 37° - 45° C., 24 hours). As for the experimental part: Upon recovery of the crystalline hydrate from the reaction mixture and cooling to room temperature, the hydrate is ordinarily isolated in the form of the crystalline dihydrate. […] […] […] Upon vacuum drying at 56° C. for 24 hours a crystalline hemihydrate is formed having 0.5 moles of bound water per mole of cephalosporin. All of the above-mentioned novel crystalline hydrates are included within the scope of the present invention.

The conditions of series [7]: pH 7.
Where [8] appears, read: at 10^-4 dilution, overnight 37° C., read-out: M.I.C.
Setting [9] is: SMITHA9537, at 10^-4 dilution, + 50% serum.

For `N[C@@H](C(=O)NC1C(=O)N2C(C(=O)O)=C(CSc3cnn[nH]3)CSC12)c1ccc(O)cc1` (stereo partly drawn) [Crystalline Methanol Solvate, 7-[D-α-amino-α-(p-hydroxyphenyl)acetamido]-3-(1,2,3-triazol-5-ylthiomethyl)-3-cephem-4-carboxylic acid methanol solvate], the Bio-assay in “Bio-assay (biopotency)” lay in the range of 850 to 900 µg/mg.
`N[C@@H](C(=O)NC1C(=O)N2C(C(=O)O)=C(CSc3cnn[nH]3)CSC12)c1ccc(O)cc1` (some centres unmarked) [amorphous monohydrate product]: the “Loss of bioactivity (potency) on storage” value in series [1] (56° C., 1 month) is on record as 37%.
Take `N[C@@H](C(=O)N[C@@H]1C(=O)N2C(C(=O)O)=C(CSc3c[nH]nn3)CS[C@H]12)c1ccc(O)cc1` [BL-S640 Sesquihydrate, 7-[D-α-amino-α-(p-hydroxyphenyl)acetamido]-3-(1,2,3-triazol-5-ylthiomethyl)-3-cephem-4-carboxylic acid sesquihydrate]: the “Biological activity when suspended in water” value was “does not lose biological activity”. In addition, the MIC with Sal.enteritidis A9531 (setting [8]) is 0.6 µg/mL. In addition, the MIC in the series on S. aureus Smith A9537 (setting [9]) is 1 µg/mL. The MIC with S. aureus Smith A9537 (SMITHA9537, at 10^-4 dilution, read-out: M.I.C.) stood at 0.3 µg/mL. Moreover, in the series with K. pneumoniae A9977, the MIC was 1 µg/mL. For the same molecule, the degraded at 730 h in series [1] (solid, 56° C., 1 month, read-out: Loss of bioactivity (potency) on storage) is less than 6%. Moreover, the “Potency and spectrum of activity” value in the series with bacteria is “substantially the same potency and spectrum of activity”. This molecule also had an MIC in the series on S. aureus BX1633-2 A9606 (BX16332A9606, at 10^-2 dil'n) of 2 µg/mL. Besides, the MIC in the series on S. aureus BX1633-2 A9606 (BX16332A9606, at 10^-3 dil'n, read-out: M.I.C.) was 0.6 µg/mL. Moreover, the MIC against Ent. cloacae A9659 amounted to 32 µg/mL. The solubility in the series “Water solubility” (25° C., read-out: Solubility in water) is approximately 10000 µg/mL. For the same molecule, the MIC with Ent. cloacae A9656 was more than 125 µg/mL. For the same molecule, the MIC in the series with Ent. cloacae A9657 is 1 µg/mL. In “in vivo [2]”, this molecule yielded a concentration at 0.5 h of 46000 ng/mL, a concentration at 1 h of 42500 ng/mL, a concentration at 2 h of 22500 ng/mL and a concentration at 3.5 h of 11900 ng/mL. For the same molecule, in the series on Ps. aeruginosa A9843A, the MIC was more than 125 µg/mL. For the same molecule, in the series on E. coli Juhl A15119, the MIC amounted to 2 µg/mL. The same molecule returned an MIC in the series on K. pneumoniae A15130 of 2 µg/mL. Also, in the series “in vivo [3]”, the concentration at 5 min was determined as 15000 ng/mL, the concentration at 0.5 h was found to be 13500 ng/mL, the concentration at 1 h amounted to 9400 ng/mL and the concentration at 1.5 h was 6800 ng/mL. Besides, the Bio-assay in “Bio-assay (biopotency)” worked out at 924 µg/mg. The MIC in the series with D. pneumoniae A9585 was 0.02 µg/mL. In addition, the MIC in series [4] was determined as 8 µg/mL. For the same molecule, in the series on Ser. marcescens A20019, the MIC is 125 µg/mL. Moreover, the MIC in the series on Pr. morganii A15153 was 16 µg/mL. In addition, in series [5], the Blood levels entry is listed as “effective blood levels”. In the series “physchem” (aqueous solution, pH 7.1), the degraded at 0.5 h came to 0.8%, the degraded at 1 h is 5.8%, the degraded at 1.5 h was 8.3% and the degraded at 2 h was found to be 15.9%. Also, the degraded at […] in the series “physchem” (aqueous solution, pH 7.1) is 0.8%. The molecule also showed a Bioassay in “physchem” (15 minutes) of 238 mg/mL. For the same molecule, the Bioassay in the series “physchem” (30 minutes) was determined as 238 mg/mL. In addition, in “physchem” (60 minutes), the Bioassay was 226 mg/mL. In “physchem” (90 minutes), the Bioassay was determined as 220 mg/mL. Moreover, the Bioassay in “physchem” (2 hours) was 202 mg/mL. Also, the Bioassay in “physchem” (time 0) was found to be 240 mg/mL. Also, in the series with Pr. mirabilis A9900, the MIC is 0.5 µg/mL. For the same molecule, in the series with Str. Pyogenes A9604, the MIC worked out at 0.02 µg/mL. Further, the MIC in the series with E. coli A9675 (setting [8]) is 4 µg/mL.
In the case of `CC1=C(C(=O)O)N2C(=O)[C@@H](NC(=O)[C@H](N)c3ccccc3)[C@H]2SC1` [Cephalexin, cephalexin, reference compound], the MIC came to 2 µg/mL (≈ 5.76 µM) in the series on Sal.enteritidis A9531; 2.5 µg/mL in the series on S. aureus Smith A9537 (setting [9]); 0.6 µg/mL (≈ 1.73 µM) in the series on S. aureus Smith A9537 (SMITHA9537, at 10^-4 dilution); 2 µg/mL (≈ 5.76 µM) in the series on K. pneumoniae A9977; 2 µg/mL (≈ 5.76 µM) in the series with S. aureus BX1633-2 A9606 (BX16332A9606, at 10^-2 dil'n); 1 µg/mL (≈ 2.88 µM) in the series on S. aureus BX1633-2 A9606 (BX16332A9606, at 10^-3 dil'n). Moreover, the MIC in the series on Ent. cloacae A9659 is more than 125 µg/mL; against Ent. cloacae A9656, more than 125 µg/mL; in the series with Ps. aeruginosa A9843A it was more than 125 µg/mL; in the series with E. coli Juhl A15119 it was 4 µg/mL (≈ 11.5 µM); against K. pneumoniae A15130 it was 8 µg/mL (≈ 23 µM); in series [4], 32 µg/mL (≈ 92.1 µM). Moreover, the MIC in the series with Ser. marcescens A20019 was more than 125 µg/mL; in the series with Pr. morganii A15153 it was more than 125 µg/mL; with Pr. mirabilis A9900, 2 µg/mL (≈ 5.76 µM); in the series on E. coli A9675 it was 16 µg/mL (≈ 46.1 µM).
In “in vivo [3]”, `Cc1nnc(SCC2=C(C(=O)O)N3C(=O)[C@@H](NC(=O)Cn4cnnn4)[C@H]3SC2)s1` [Cefazolin, Na salt, sodium cefazolin, reference compound] displayed a concentration at 5 min of 16100 ng/mL, a concentration at 0.5 h of 11100 ng/mL, a concentration at 1 h of 5700 ng/mL and a concentration at 1.5 h of 2900 ng/mL.
On to `N[C@@H](C(=O)NC1C(=O)N2C(C(=O)O)=C(CSc3cnn[nH]3)CS[C@H]12)c1ccc(O)cc1.O.O` (stereo partly drawn) [dihydrate, 7-[D-α-Amino-α-(p-hydroxyphenyl)-acetamido]-3-(1,2,3-triazol-5-ylthiomethyl)-3-cephem-4-carboxylic acid dihydrate], for which the “Loss of bound water” value in series [6] is on record as “lose one-half molecule of bound water”. For the same molecule, the Bio-assay in the series “Bio-assay (biopotency)” is 950 to 1000 µg/mg.
In the case of `N[C@@H](C(=O)NC1C(=O)N2C(C(=O)O)=C(CSc3cnn[nH]3)CS[C@H]12)c1ccc(O)cc1` (stereo partly drawn) [BL-S640, 7-[D-α-Amino-α-(p-hydroxyphenyl)acetamido]-3-(1,2,3-triazol-5-ylthiomethyl)-3-cephem-4-carboxylic acid], the “Degradation at alkaline pH” value in series [7] was “degrades very rapidly by loss of the thiol moiety”.
Consider `N[C@@H](C(=O)NC1C(=O)N2C(C(=O)O)=C(CSc3cnn[nH]3)CSC12)c1ccc(O)cc1` (stereo partly drawn) [propylene glycol solvate, 7-[D-α-amino-α-(p-hydroxyphenyl)acetamido]-3-(1,2,3-triazol-5-ylthiomethyl)-3-cephem-4-carboxylic acid propylene glycol solvate], for which the “Loss of bioactivity (potency) on storage” value in [1] (56° C., 1 month) is recorded as less than 10%. In [1] (solid, 100° C., 24 hours), this molecule gave a degraded at 24 h of less than 6%. The same molecule showed a degraded at 48 h in [1] (solid, 100° C., 48 hours) of less than 12%. For the same molecule, in “Water solubility” (23° C., read-out: Water solubility), the solubility was approximately 10000 µg/mL. In addition, the Bio-assay in the series “Bio-assay (biopotency)” lay within 750 to 790 µg/mg.
